Data as given in US11548935B2 (NeoMatrix Therapeutics Inc., priority 2016, dated 2023).
“Also recorded” adds a separate entry of the source. Peptide text beside a SMILES is read from it.

Legend:
[1] = test system: human neutrophil elastase; test: purified human neutrophil elastase; settings: up to 24 h
[2] = test system: Adult human dermal fibroblasts CF31 cells; test: Fibroblast metabolism (XTT) assay with 1 nM PDGF-BB, 6 days; format: cell-based; settings: for bioactivity as determined by fibroblast metabolism assay: FIG. 2, XTT OD 450 nm
Description: Adult human dermal fibroblasts CF31 cells at 1000 cells/well were seeded in a collagen-coated 96-well plate in DMEM overnight, then 1 nM PDGF-BB with peptides at indicated doses was added and cells were incubated at 37° C. for 6 days. Then cell metabolism was measured by XTT assay by reading OD at 450 nm. Each point represents the mean of 6 replicates with a typical SD=5-10% around the mean (not shown for graft clarity).
Adult human dermal fibroblasts, CF31, at 1000 cells/well were incubated at 37° C. in a collagen-coated 96-well plate with DMEM, 1 nM PDGF-BB with peptides at indicated doses for 6 days and then cell metabolism was measured by XTT assay, reading OD at 450 nm. Data represent the mean of 6 replicates.
P12, P46, cNP7 and cNP8 were compared for their ability to promote the survival of adult human dermal fibroblasts in the presence of PDGF-BB. Adult human dermal fibroblasts at 1000 cells/well were incubated in a collagen-coated 96-well plate with DMEM, 1 nM PDGF-BB with peptides at indicated doses for 6 days and then cell metabolism was measured by XTT assay. Data represent the mean of 6 replicates (FIG. 4).

[3] = biological target: Transforming Growth Factor-Beta1 (TGF-β1) (Homo sapiens, UniProt P01137); test: Surface plasmon resonance (Biacore) binding to growth factor; settings: plasmon surface resonance (Biacore T200)
Description: (§1) To study the binding activities of these peptides, real time interactions of P12, P46, and cNP8 with growth factors were determined by plasmon surface resonance (Biacore T200).

[4] = biological target: insulin-like growth factor-1 (IGF-1) (Homo sapiens, UniProt P05019); test: as above; settings: plasmon surface resonance (Biacore T200)
Description: as §1

[5] = biological target: epidermal growth factor (EGF) (Homo sapiens, UniProt P01133); test: as above; settings: plasmon surface resonance (Biacore T200)
Description: as §1

[6] = test system: burn wounds; test: Topical treatment of porcine deep partial-thickness burns (PLO gel); format: in vivo, pig; settings: 48-hour debrided wounds, 10 days after wounding, vs control or cP12 (FIG. 6)
Description: Four female, 20-30 kg, domestic pigs were used for cutaneous wound procedures.
Study Protocol: The animals were sedated with Talazine (Tiletamine and Zolazepam, Fort Dodge Lab, Fort Dodge, Iowa) 5 mg/kg IM. The pigs were then intubated endotracheally and maintained under a surgical plane of anesthesia with isoflurane 0.5-2.5% in room air. The flank and back hair were clipped with electric hair clippers and the skin was scrubbed with a povidone iodine solution.
Standardized deep partial-thickness burns were created on the animals' backs and flanks by applying a 2.5-cm by 2.5-cm, 150-gram aluminum bar preheated in hot water to 80° C. The burns were created on either side of the vertebral column between the forelegs and hind legs. The heated bar was wiped dry just prior to application to prevent water droplets from creating a steam burn on the skin. The bar was then placed at a vertical position perpendicular to the skin's surface and applied for a period of 20 seconds with all pressure supplied by gravity. […] 24 burns were evenly distributed on both sides of the back of four pigs. […] Debridement was performed by gently rubbing dry gauze against the surface of the burn until the necrotic epidermis was peeled away from the entire burn surface. Interventions: On the back skin of each pig, equal sets of 4 burns were randomly treated with one of the 6 study treatments. […]

[7] = test system: burn wounds; test: Intravenous treatment in porcine vertical progression burn model; format: in vivo, pig; settings: intravenous infusion 0.001, 0.01 or 0.1 mg/kg
Description: The vertical progression burn model (as shown in above topical experiment) was used to create burns on the backs of each of 4 pigs. Twenty burns (80° C./20 seconds) were made on the backs of each pig—one set of burns was made 8 hours prior to infusion, the second set was made 4 hours prior to infusion. Three pigs were treated with infusions of 0.001, 0.01 or 0.1 mg/kg of cNP8 and one pig was treated with an infusion of buffer, as control. Lyophilized cNP8 was reconstituted in PBS (11.6 mg/ml corrected-based on 75% pure) to get a 5 mM stock solution in the laboratory and filtered with a syringe filter with 0.22 um membrane. The concentration of filtered cNP8 solution was determined by reading OD280 and the concentration was calculated based on OD280=6.76 per mM cNP8. The cNP8 was diluted to 5 mM with PBS as necessary. The filtered cNP8 solution was aliquoted and stored at −80° C. Just before infusion, cNP8 was further diluted: a) 1:270 with PBS to get a 0.019 mM cNP8 solution. The injection amount was 3 ml/kg body weight of 0.019 mM cNP8 which is equal to 0.1 mg/kg body weight. b) 1:2700 with PBS to get a 0.0019 mM cNP8 solution. The injection was 3 ml/kg body weight of 0.0019 mM cNP8 which is equal to 0.01 mg/kg body weight. c) 1:27000 with PBS to get a 0.00019 mM cNP8 solution. The injection amount was 3 ml/kg body weight of 0.00019 mM cNP8 which is equal to 0.001 mg/kg body weight. […]

[8] = biological target: PDGF-BB (Homo sapiens, UniProt P01127); test: Surface plasmon resonance (Biacore) binding to growth factor; settings: plasmon surface resonance (Biacore T200)
Description: as §1
In the Biacore2000 system, binding constants from kinetic data are determined by passing varying concentrations of FN peptides (analytes) over chip surfaces which are coupled with PDGF-BB (ligand), respectively. All kinetic experiments are carried out at 20° C. at a flow rate of 20 μl/min. For mass transport experiments, each analyte is injected at a fixed concentration and run at flow rates ranging from 5 to 75 μl/min. All analytes are injected over PDGF-BB ligand surfaces as well as over a control surface for 120 s, followed by 300 s of dissociation in running buffer. Regeneration of the sensor chip for subsequent injections is accomplished by pulse of 0.1% SDS. Mass transport experiments have detected little difference in response at different flow rates thus validating data from kinetic experiments. Sensorgrams are prepared and globally fitted using nonlinear least-squares analysis and numerical integration of the differential rate equations with the Biacore Bioevaluation software. […] Each data set, which consists of a series of sensorgrams from injections of different concentration of analyte over the same surface, is analyzed using kinetic models from Bioevaluation software.

[9] = biological target: T1, human neutrophil elastase (Homo sapiens, UniProt P08246)
T1 sequence (P08246 30-267): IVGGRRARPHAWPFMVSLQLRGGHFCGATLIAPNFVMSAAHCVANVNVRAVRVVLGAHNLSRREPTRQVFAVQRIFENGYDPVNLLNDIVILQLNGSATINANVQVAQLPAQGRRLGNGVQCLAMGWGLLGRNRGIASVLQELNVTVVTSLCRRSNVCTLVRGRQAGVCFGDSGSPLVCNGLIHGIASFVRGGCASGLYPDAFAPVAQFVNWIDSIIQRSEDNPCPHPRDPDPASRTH
Description: P46 was incubated with purified human neutrophil elastase at 1:100 enzyme:substrate molar ratio at 37° C. for 4 h (3A) or 24 h (3B). Peptides stability was determined by MALDI-TOF analysis.
Peptides' stability was determined by MALDI-TOF analysis.
The reaction was stopped with formic acid and the reaction mixture was analyzed by mass spectroscopy.
To determine the sensitivity of P46 to elastase digestion, P46 was synthesized and digested with elastase. […] P46 was incubated with purified human neutrophil elastase at 1:100 enzyme:substrate molar ratio at 37° C. for 4 h (FIG. 3A) or 24 h (FIG. 3B). The elastase-generated smaller peptides were determined by MALDI-TOF analysis.
Peptide's stability was determined by MALDI-TOF analysis.

[10] = test system: adult human dermal fibroblast; test: Screening experiment of adult human dermal fibroblast survival in medium without serum with 1 nM PDGF-BB; format: cell-based; settings: 6 days of incubation

Sequence of PDGF-BB (P01127 82-190 limits assumed): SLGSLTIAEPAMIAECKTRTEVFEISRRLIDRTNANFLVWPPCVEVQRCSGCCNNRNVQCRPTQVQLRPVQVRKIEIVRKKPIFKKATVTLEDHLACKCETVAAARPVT
Sequence of Transforming Growth Factor-Beta1 (TGF-β1) (P01137 279-390 limits assumed, species assumed): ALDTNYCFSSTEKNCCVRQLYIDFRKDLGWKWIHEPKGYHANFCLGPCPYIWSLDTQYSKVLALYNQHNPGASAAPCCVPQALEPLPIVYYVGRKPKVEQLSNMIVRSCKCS
Sequence of epidermal growth factor (EGF) (P01133 971-1023 limits assumed, species assumed): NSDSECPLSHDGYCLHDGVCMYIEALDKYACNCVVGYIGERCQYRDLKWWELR
Sequence of insulin-like growth factor-1 (IGF-1) (P05019 49-118, species assumed): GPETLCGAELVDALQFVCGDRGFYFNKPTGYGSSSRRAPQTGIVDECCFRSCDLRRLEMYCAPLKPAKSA

Compound: cyclo(HIGKYGLRWRPKGSV) (SMILES CC[C@H](C)[C@@H]1NC(=O)[C@H](Cc2c[nH]cn2)NC(=O)[C@H](C(C)C)NC(=O)[C@H](CO)NC(=O)CNC(=O)[C@H](CCCCN)NC(=O)[C@@H]2CCCN2C(=O)[C@H](CCCNC(=N)N)NC(=O)[C@H](Cc2c[nH]c3ccccc23)NC(=O)[C@H](CCCNC(=N)N)NC(=O)[C@H](CC(C)C)NC(=O)CNC(=O)[C@H](Cc2ccc(O)cc2)NC(=O)[C@H](CCCCN)NC(=O)CNC1=O)
- not cleaved ([1]; 37° C.): A large majority of intact peptide was retained at 24 h

Compound: CC[C@H](C)[C@@H]1NC(=O)[C@H](Cc2c[nH]cn2)NC(=O)[C@H](C(C)C)NC(=O)[C@H](CO)NC(=O)CNC(=O)[C@H](CCCCN)NC(=O)[C@@H]2CCCN2C(=O)[C@H](CCCNC(=N)N)NC(=O)[C@H](Cc2c[nH]c3ccccc23)NC(=O)[C@H](CCCNC(=N)N)NC(=O)[C@H](CC(C)C)NC(=O)CNC(=O)[C@H](Cc2ccc(O)cc2)NC(=O)[C@H](CCCCN)NC(=O)CNC1=O [cNP8, HIGKYGLRWRPKGSV] (cyclo(HIGKYGLRWRPKGSV))
- bioactivity compared with other peptides ([2]; FIG. 4, XTT): equivalent or better bioactivity; also recorded: much higher bioactivity than that of P12
- promotion of survival of adult human dermal fibroblasts in the presence of PDGF-BB ([2]; FIG. 4, XTT): promoted the survival of adult human dermal fibroblasts
- binding to TGF-β1 [3]: bind
- binding to IGF-1 [4]: did not bind
- binding to EGF [5]: did not bind
- re-epithelialization [6]: markedly increased
- re-epithelialization ([7]; day 10 post-injury (FIG. 7)): markedly increased; also recorded: increase of re-epithelialization
- re-epithelialization ([7]; day 14 post-injury (FIG. 8)): markedly increased; also recorded: increase of re-epithelialization
- binding to PDGF-BB [8]: bind

Compound: HISKYILRWRPKNSV (polypeptide according to formula I) [P46, peptide produced by elastase digestion of FN III1-C]
- bioactivity as determined by fibroblast metabolism assay [2]: much higher bioactivity than that of P12
- promotion of survival of adult human dermal fibroblasts in the presence of PDGF-BB ([2]; FIG. 4, XTT): promoted the survival of adult human dermal fibroblasts
- binding to TGF-β1 [3]: bind
- binding to IGF-1 [4]: did not bind
- binding to EGF [5]: did not bind
- sensitivity to elastase digestion [9]: retained some sensitivity to elastase digestion
- binding to PDGF-BB [8]: bind

Compound: HISKYILGWRPKNSV (NP9 peptide) [engineered peptide designed from P46]
- biological activity on screening experiment of fibroblast survival [10]: minimal biological activity

Compound: HISKYILRWGPKNSV (NP11 peptide) [engineered peptide designed from P46]
- biological activity on screening experiment of fibroblast survival [10]: minimal biological activity

Compound: HIGKYGLRWRPKGSV (polypeptide according to formula I) [NP8, engineered peptide designed from P46]
- biological activity on screening experiment of fibroblast survival [10]: best biological activity

Compound: HISKYILRGRPKNSV (NP10 peptide) [engineered peptide designed from P46]
- biological activity on screening experiment of fibroblast survival [10]: minimal biological activity

Compound: SKYILRWRPKNSV (P45 peptide) [peptide produced by elastase digestion of FN III1-C]
- bioactivity as determined by fibroblast metabolism assay [2]: little bioactivity

Compound: HIGKYGLRWRPKNSV [cNP7, cyclic form of engineered peptide NP7]
- promotion of survival of adult human dermal fibroblasts in the presence of PDGF-BB ([2]; FIG. 4, XTT): promoted the survival of adult human dermal fibroblasts

Compound: PSHISKYILRWRPK [cP12]
- degradation by neutrophil elastase [9]: remain sensitive to this endopeptidase
- number of elastase-cleavage sites [9]: five

Compound: PSHISKYILRWRPK
- fragment found [1]: KYILRWRPKPSHIS; also recorded: RWRPKPSHISKYIL
